These results are taken from PMC3317662, “Some Commonly Used Brominated Flame Retardants Cause Ca^2+-ATPase Inhibition, Beta-Amyloid Peptide Release and Apoptosis in SH-SY5Y Neuronal Cells” (PLoS ONE, 2012).

The assay concerns the target T1, microsomal Ca2+-ATPase (SERCA).
T1 construct: native enzyme in microsomal membranes isolated from SH-SY5Y cells
Description: Ca2+-dependent ATP hydrolysis (phosphate liberation assay) in SH-SY5Y microsomes. Format: biochemical.
Turning to `CC(C)(c1cc(Br)c(O)c(Br)c1)c1cc(Br)c(O)c(Br)c1` [Tetrabromobisphenol-A], the Ki (usually the dissociation constant of the complex between target and ligand, obtained from inhibition or displacement) amounted to 9 ± 2 µM.
In the case of `Brc1c(Br)c(Br)c(Oc2c(Br)c(Br)c(Br)c(Br)c2Br)c(Br)c1Br` [decabromodiphenyl ether] it was 41 ± 7 µM; in that of `BrC1CCC(Br)C(Br)CCC(Br)C(Br)CCC1Br` (stereo not drawn) [hexabromocyclododecane], 3.5 ± 1.2 µM.
